In patent US11066379B2 (THE TEXAS A&M UNIVERSITY SYSTEM, priority 2018, dated 2021):

How the values were obtained:
[1] = system: Interleukin-2 (IL-2) production in human T lymphocytes; test: Interleukin-2 release in Con A-stimulated human T lymphocytes (ELISA); format: cell-based
Description: Then, cells were stimulated with Concanavalin A (Con A) at 50 μg/mL for 48 h to induce IL-2 release. The amount of IL-2 released to the culture medium was evaluated using Human IL-2 ELISA kit. Experiments were carried out four times.

human T lymphocytes = test: Viability of human T lymphocytes (MTT assay, 48 h); format: cell-based; details: for cell toxicity to T-cells: 0.1 μM, in words
Excerpt: (§1) The MTT (3-[4,5-dimethylthiazol-2-yl]-2,5-diphenyltetrazoliumbromide) assay was used to determine the cytotoxicity of gracilin derivatives in T lymphocytes (Burton, J. D. Methods Mol. Med., 2005, 110, 69-78) and SH-SY5Y cells and the protective effect of these compounds against H2O2 insult in neuroblastoma cells as previously described (Leiros, M., Alonso, E., Sanchez, J. A., Rateb, M. E., Ebel, R., Houssen, W. E., Jaspars, M., Alfonso, A. and Botana, L. M. ACS Chem. Neurosci., 2014, S, 71-80). Human T lymphocytes were cultured in 24 well plates at the concentration of 2.5×10^6 cells/mL and exposed to different compound concentrations (0.01, 0.1, 1 and 10 μM) added to the culture medium. Human T cells were maintained in the presence of the pure compound at 37° C. in humidified 5% CO2/95% air atmosphere for 48 h.
Saponin was used as cellular death control and its absorbance was subtracted from the other data. After the incubation period with compounds, assay was performed. First cells were centrifuged (1500 rpm, 5 min, 4° C.). The pellets were resuspended in saline solution with MTT (250 μg/mL) and then incubated at 37° C. during 30 min. After washing off excess MTT twice with saline solution, cells were disaggregated with H2O and sonicated for 1 min and the absorbance of the colored formazan salt was measured at 595 nm in a spectrophotometer plate reader. All experiments were performed three times.

[2] = target: T1, active human CypA protein (Homo sapiens, UniProt P62937); test: Binding to immobilized CypA by surface plasmon resonance (SPR); details: for affinity for CypA (association curves, KD) / fold increase in KD toward CypA compared to gracilin A: SPR; for affinity for CypA (association curves, KD): various concentrations; for affinity for CypA (association curves, KD) / immunosuppressive activity (SAR profile, FIG. 2): in words; for immunosuppressive activity (SAR profile, FIG. 2): CypA binding / IL-2 inhibition
T1 construct: Active human CypA full-length protein was from Abcam; purchased Abcam
T1 sequence (P62937 whole entry): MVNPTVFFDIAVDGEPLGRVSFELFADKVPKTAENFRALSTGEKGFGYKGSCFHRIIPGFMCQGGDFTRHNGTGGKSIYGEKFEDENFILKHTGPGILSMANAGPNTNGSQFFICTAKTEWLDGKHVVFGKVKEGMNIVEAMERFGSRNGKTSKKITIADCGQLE
Description: Sensor surface activation and ligand immobilization were performed by using HBS-EP as running buffer at a flow rate of 5 μL/min and 25° C. CM5 sensor chips were used as surface where Cyp A or D was immobilized as ligand. The CM5 chip is a glass slide coated with a thin layer of gold with a matrix of carboxymethylated dextran covalently attached. The CM5 chip was activated using an amine coupling kit. […] After activation, the ligand, 100 μg/mL of active human CypA protein dissolved in sodium acetate 10 mM at pH 4.5 was added to be immobilized over a CM5 sensor chip. Finally ethanolamine-HCl was injected to deactivate the remaining active esters and to avoid non-specific binding. […] Once analytes were tested and interaction was observed, individual binding curves were analyzed by determining the kinetic constants of analytes-CypA binding, namely, the observed rate constant (Kobs), the association rate constant (Kass), the dissociation rate constant (Kdiss), and the kinetic equilibrium dissociation constant (KD). At equilibrium, by definition, […]. The pseudo-first order association rate constants Kobs (s^-1) were determined for each compound concentration by using the 1:1 Langmuir association model of BiaEvaluation software (BiaCore, Uppsala, Sweden). Then a representation of Kobs against the corresponding concentration of each compound was done. […] From the equation of these representations, Kass, M^-1 s^-1, gradient of the plot, and […]^-1, intercept of the plot was obtained. Within these two values, the kinetic equilibrium dissociation constant KD for each analyte-CypA binding was obtained. The duration of the sample injection was 2 min at 10 μL/min flow rate. Next, dissociation of bound molecules in HBS-EP buffer flow was studied. The bound drugs were removed from the chip surface before the next injection by adding 1 M Glycine-HCl at pH 2.5 for 1 min. The association phase was used to quantify the compound-CypA or D interactions. All experiments were performed four times.

SH-SY5Y cells [3] = test: Cellular toxicity in SH-SY5Y cells (MTT, 24 h); format: cell-based; details: SH-SY5Y, 24 h incubation; read-out: IC50 (cellular toxicity)
Excerpt: as §1
(§2) SH-SY5Y cells were seeded in 96-well plates at a density of 2.5×10^5 cells/mL and allowed to adhere for 24 h. At first, cells were treated only with compounds at concentrations ranging from 10-0.01 μM for 24 h to determine their possible cytotoxic effects. Experiments were carried out three times. For neuroprotective experiments, cells were treated with compounds at non-toxic concentrations (1 μM→1 nM) and 150 μM H2O2 for 6 h. Briefly, cells were washed three times with saline solution and 200 μL of MTT (500 μg/mL) dissolved in saline buffer were added to each well. Following 1 h of incubation at 37° C., the cells were disaggregated with sodium dodecyl sulphate at 5%.
Absorbance of formazan crystals was measured at 595 nm with a spectrophotometer plate reader. Saponin was used as death control and its absorbance was subtracted from the other data. All experiments were performed four times.

SH-SY5Y cells [4] = test: Intracellular ROS levels (carboxy-H2DCFDA) after H2O2; format: cell-based, human; details: 150 μM H2O2 co-treatment 6 h
Description: Intracellular levels of reactive oxygen species (ROS) were determined with carboxy-H2DCFDA (5-(and-6)-carboxy-2′,7′-dichlorodihydrofluorescein diacetate). This dye diffuses through the cellular membrane and is converted by cellular esterases to carboxy-H2DCFH (non-fluorescent). When carboxy-H2DCFH is oxidized by ROS, it becomes fluorescent (Halliwell, B. and Whiteman, M. Br. J. Pharmacol., 2004, 142, 231-255). Cells were seeded at a density of 2.5×10^5 cells/mL in 96-well plates and allowed to attach for 24 h. Following treatment with compounds at various concentrations (1 μM→1 nM) and 150 μM H2O2 for 6 h, SH-SY5Y cells were washed twice with serum-free culture medium. Then, carboxy-H2DCFDA 20 μM dissolved in serum-free culture medium was added to each well and the cells were incubated for 1 h at 37° C. After this incubation, the medium with the fluorescent dye was replaced with PBS and the plate was incubated for 30 min at 37° C. Fluorescence was read at 527 nm, with an excitation wavelength of 495 nm. All experiments were performed four times.

SH-SY5Y cells [5] = test: Neuroprotection against H2O2 toxicity, cell viability by MTT; format: cell-based, human; details: 150 μM H2O2 co-treatment 6 h; 0.01, 0.1 and 1 μM
Description: as §2, with “5%. Absorbance of formazan crystals was measured at 595 nm with a spectrophotometer plate reader. Saponin was used as death control and its absorbance was subtracted from the other data. All experiments were performed four times.” for “5%.”

Molecule: CC(=O)O[C@H]1O[C@@H](OC(C)=O)[C@@H]2CCC(=O)C[C@H]12 [Compound 17, (1S,3R,3aS,7aR)-5-oxooctahydroisobenzofuran-1,3-diyl diacetate]
- Inhibition of IL-2 production ([1]; in words): did not inhibit IL-2 production
- cell toxicity to T-cells (human T lymphocytes): did not show signs of cell toxicity
- affinity for CypA (association curves, KD) [2]: no affinity

Molecule: (1S,3R,3aS,7aR)-5-((S)-1,3,3-trimethylcyclohexyl)-1,3,3a,4,7,7a-hexahydroisoben-zofuran-1,3-diyl diacetate [Compound 23a]
- IC50 (SH-SY5Y cells [3]): 1400 nM
- decrease in cell viability (human T lymphocytes): ~10%
- ROS levels (SH-SY5Y cells [4]): diminishing ROS at two or three concentrations
- fold increase in KD toward CypA compared to gracilin A [2]: ~1000 fold
- protection of cell viability against H2O2 insult (SH-SY5Y cells [5]): protected cells against H2O2 insult at almost all concentrations

Molecule: CC(=O)OC1OC(OC(C)=O)[C@@H]2CCC=C[C@H]12 (stereo partly drawn) [Compound 18, (3aR,7aS)-1,3,3a,4,5,7a-hexahydroisobenzofuran-1,3-diyl diacetate]
- Inhibition of IL-2 production ([1]; in words): did not inhibit IL-2 production
- cell toxicity to T-cells (human T lymphocytes): did not show signs of cell toxicity
- affinity for CypA (association curves, KD) [2]: no affinity

Molecule: CC(=O)OC1CCC(OC(C)=O)O1 (mixture of isomers) [(±)-9, cis- and trans-2,5-tetrahydrofuran-2,5-diyl diacetate]
- Inhibition of IL-2 production ([1]; in words): did not inhibit IL-2 production
- cell toxicity to T-cells (human T lymphocytes): did not show signs of cell toxicity
- affinity for CypA (association curves, KD) [2]: no affinity

Molecule: CC(=O)O[C@@H]1OC[C@H]2CC(=O)CC[C@H]21 [Compound 24, (1S,3aS,7aR)-5-oxooctahydroisobenzofuran-1-yl acetate]
- immunosuppressive activity (SAR profile, FIG. 2) [2]: inactive

Molecule: CC1(C2=C[C@@H]3COC(=O)[C@@H]3CC2)CCCCC1 [Compound 26, (3aS,7aR)-5-(1-methylcyclohexyl)-3a,6,7,7a-tetrahydroisobenzofuran-1(3H)-one]
- immunosuppressive activity (SAR profile, FIG. 2) [2]: inactive

Molecule: (0R,3S,3aR,7aS)-6-((R)-1,3,3-trimethyl-cyclohexyl)-1,3,3a,4,5,7a-hexahydroisobenzofuran-1,3-diyl diacetate [Compound 23d]
- IC50 (SH-SY5Y cells [3]): 1400 nM
- Inhibition of IL-2 production ([1]; 2 h pre-treatment at non-toxic concentration, Con A 50 μg/mL 48 h): 46%
- impact on T-cell viability (human T lymphocytes): no impact on cell viability
- fold increase in KD toward CypA compared to gracilin A [2]: ~1000 fold
